# Data published in PMC5794925, “Expression and specificity of a chitin deacetylase from the nematophagous fungus Pochonia chlamydosporia potentially involved in pathogenicity” (Scientific Reports, 2018).
# Molecular target: T1, PcCDA catalytic domain (Pochonia chlamydosporia, UniProt A0A179FW77)
# T1 construct: gene VFPPC_13269
# T1 sequence (A0A179FW77 94-309): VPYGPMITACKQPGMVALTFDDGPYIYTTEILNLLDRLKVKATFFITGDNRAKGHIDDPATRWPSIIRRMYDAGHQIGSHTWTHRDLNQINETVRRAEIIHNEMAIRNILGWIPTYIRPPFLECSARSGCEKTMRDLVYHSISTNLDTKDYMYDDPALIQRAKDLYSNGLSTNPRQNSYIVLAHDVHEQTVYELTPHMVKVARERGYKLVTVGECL
# Experiment: HPLC-MS of deacetylated products
# Assay type: biochemical
# Settings: 0.2 mM substrate, 3.2 nM enzyme, 50 mM K2HPO4, 300 mM NaCl, pH 8.0, 37 °C; refolded with Zn2+
smiles,measurement,value
"CC(=O)N[C@H]1[C@H](O[C@H]2[C@H](O)[C@@H](NC(C)=O)C(O)O[C@@H]2CO)O[C@H](CO)[C@@H](O[C@@H]2O[C@H](CO)[C@@H](O[C@@H]3O[C@H](CO)[C@@H](O)[C@H](O)[C@H]3NC(C)=O)[C@H](O)[C@H]2NC(C)=O)[C@@H]1O (stereo partly shown) [A4, GlcNAc4]",HPLC-MS of deacetylated products,"With the A4 substrate, the enzyme was also active but slower than with the A5"
